Data taken from patent US8445510B2, “Fused bicyclic kinase inhibitors” (OSI Pharmaceuticals, LLC, priority 2011, dated 2013).

Tests used:
MKN45 cells = test: MKN45 cell proliferation assay (CellTiter-Glo); format: cell-based; conditions: Homo sapiens, MKN-45, 72 h; MKN45 cell line; 3 days incubation; at least duplicate experiments; read-out: Prolif. IC50
RON = target: T1, RON (Homo sapiens, UniProt Q04912); test: sfRON cell mechanistic assay (HeLa), phosphorylated RON ELISA; format: cell-based; conditions: HeLa cells transfected with sfRON; inhibition of phosphorylated RON; four hours incubation; at least duplicate experiments; read-out: sfRON mech IC50
T1 sequence (Q04912 913-1400): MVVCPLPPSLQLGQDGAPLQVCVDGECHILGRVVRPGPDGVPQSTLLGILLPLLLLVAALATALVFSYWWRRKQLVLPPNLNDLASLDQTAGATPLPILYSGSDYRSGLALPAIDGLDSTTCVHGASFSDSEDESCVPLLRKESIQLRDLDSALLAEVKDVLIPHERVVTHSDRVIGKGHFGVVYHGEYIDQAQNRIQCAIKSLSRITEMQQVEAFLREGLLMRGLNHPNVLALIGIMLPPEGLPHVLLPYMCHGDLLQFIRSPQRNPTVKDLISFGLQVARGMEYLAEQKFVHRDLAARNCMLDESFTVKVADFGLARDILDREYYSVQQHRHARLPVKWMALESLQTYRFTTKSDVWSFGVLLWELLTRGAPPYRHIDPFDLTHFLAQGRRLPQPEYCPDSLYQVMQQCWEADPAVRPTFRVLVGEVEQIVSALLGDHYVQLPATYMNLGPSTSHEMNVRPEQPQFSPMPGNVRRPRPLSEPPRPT
Method in brief: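 HeLa cells transiently transfected with sfRON plasmid, then exposed 4 h at 37 °C to a 6-point compound series (typically 10 μM to 3 nM, 0.5% DMSO). Phospho-RON (pY1238/1239) in lysates measured by sandwich ELISA with luminescence. IC50 from 4-parameter fit of percent-of-DMSO-control data, at least duplicate runs.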

| Compound | IC50 (MKN45 cells) [nM] | IC50 (RON) [nM] |
| --- | --- | --- |
| COc1ccc(F)c(Cl)c1[C@@H](C)c1c[nH]c2ncc(-c3cnn([C@@H]4C[C@@H](O)[C@@H](O)C4)c3C)cc12 [Example 31, (1R,2S,4S)-4-(4-{3-[(1S)-1-(2-Chloro-3-fluoro-6-methoxyphenyl)ethyl]-1H-pyrrolo[2,3-b]pyridin-5-yl}-5-methyl-1H-pyrazol-1-yl)cyclopentane-1,2-diol] | ≤ 50 | 200 to 1000 |
| COc1ccc(F)c(Cl)c1[C@@H](C)c1c[nH]c2ncc(-c3cn([C@@H]4C[C@@H](O)[C@@H](O)C4)nc3C)cc12 [Example 32, (1R,2S,4S)-4-(4-{3-[(1S)-1-(2-Chloro-3-fluoro-6-methoxyphenyl)ethyl]-1H-pyrrolo[2,3-b]pyridin-5-yl}-3-methyl-1H-pyrazol-1-yl)cyclopentane-1,2-diol] | ≤ 50 | ≤ 200 |
| COc1ccc(F)c(Cl)c1[C@@H](C)c1c[nH]c2ncc(-c3c(C)nn([C@@H]4C[C@@H](O)[C@@H](O)C4)c3C)cc12 [Example 33, (1R,2S,4S)-4-(4-{3-[(1S)-1-(2-Chloro-3-fluoro-6-methoxyphenyl)ethyl]-1H-pyrrolo[2,3-b]pyridin-5-yl}-3,5-dimethyl-1H-pyrazol-1-yl)cyclopentane-1,2-diol] | ≤ 50 | 200 to 1000 |
| COc1ccc(F)c(Cl)c1[C@@H](C)c1c[nH]c2ncc(-c3cn(C[C@@H](O)CO)nc3C(F)(F)F)cc12 [Example 34, (2R)-3-[4-{3-[(1S)-1-(2-Chloro-3-fluoro-6-methoxyphenyl)ethyl]-1H-pyrrolo[2,3-b]pyridin-5-yl}-3-(trifluoromethyl)-1H-pyrazol-1-yl]propane-1,2-diol] | 50 to 200 | > 1000 |

Second part, the molecule after the results:

| IC50 (MKN45 cells) [nM] | IC50 (RON) [nM] | Compound |
| --- | --- | --- |
| ≤ 50 | 200 to 1000 | COc1ccc(F)c(Cl)c1[C@@H](C)c1c[nH]c2ncc(-c3cnn([C@H]4CC[C@H](C(=O)N(C)C)CC4)c3C)cc12 [Example 14, Trans-4-(4-{3-[(1S)-1-(2-chloro-3-fluoro-6-methoxyphenyl)ethyl]-1H-pyrrolo[2,3-b]pyridin-5-yl}-5-methyl-1H-pyrazol-1-yl)-N,N-dimethylcyclohexanecarboxamide] |
| ≤ 50 | ≤ 200 | CNC(=O)[C@H]1CC[C@H](n2ncc(-c3cnc4[nH]cc([C@H](C)c5c(OC)ccc(F)c5Cl)c4c3)c2C)CC1 [Example 17, trans-4-(4-{3-[(1S)-1-(2-Chloro-3-fluoro-6-methoxyphenyl)ethyl]-1H-pyrrolo[2,3-b]pyridin-5-yl}-5-methyl-1H-pyrazol-1-yl)-N-methyl cyclohexanecarboxamide] |
| ≤ 50 | 200 to 1000 | COc1ccc(F)c(Cl)c1[C@@H](C)c1c[nH]c2ncc(-c3cnn([C@H]4CC[C@H](C(N)=O)CC4)c3C)cc12 [Example 18, trans-4-(4-{3-[(1S)-1-(2-chloro-3-fluoro-6-methoxyphenyl)ethyl]-1H-pyrrolo[2,3-b]pyridin-5-yl}-5-methyl-1H-pyrazol-1-yl)cyclohexanecarboxamide] |
| ≤ 50 | ≤ 200 | COc1ccc(F)c(Cl)c1[C@@H](C)c1c[nH]c2ncc(-c3cn([C@H]4CC[C@H](C(N)=O)CC4)nc3C)cc12 [Example 19, trans-4-(4-{3-[(1S)-1-(2-Chloro-3-fluoro-6-methoxyphenyl)ethyl]-1H-pyrrolo[2,3-b]pyridin-5-yl}-3-methyl-1H-pyrazol-1-yl)cyclohexanecarboxamide] |
| ≤ 50 | ≤ 200 | CNC(=O)[C@H]1CC[C@H](n2cc(-c3cnc4[nH]cc([C@H](C)c5c(OC)ccc(F)c5Cl)c4c3)c(C)n2)CC1 [Example 22, trans-4-(4-{3-[(1S)-1-(2-Chloro-3-fluoro-6-methoxyphenyl)ethyl]-1H-pyrrolo[2,3-b]pyridin-5-yl}-3-methyl-1H-pyrazol-1-yl)-N-methylcyclohexanecarboxamide] |
| ≤ 50 | 200 to 1000 | COc1ccc(F)c(Cl)c1[C@@H](C)c1c[nH]c2ncc(-c3cnn([C@H]4CC[C@H](O)CC4)c3C)cc12 [Example 27, trans-4-(4-{3-[(1S)-1-(2-Chloro-3-fluoro-6-methoxyphenyl)ethyl]-1H-pyrrolo[2,3-b]pyridin-5-yl}-5-methyl-1H-pyrazol-1-yl)cyclohexanol] |
